The results in this text go back to US12303509B2, “Compounds for the treatment of BRAF-associated diseases and disorders” (Pfizer Inc., priority 2020, dated 2025).

Data set [1] has as its target full-length FLAG-tagged B-Raf(V600E) (Homo sapiens (Human), UniProt P15056, V600E). Nature of the data set: BRAF V600E enzyme assay (TR-FRET competitive displacement). The format is binding. To be noted: averaged IC50; TR-FRET tracer displacement, 60 min. In a few lines:
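Displacement of 50 nM Tracer 1710 from 5 nM full-length N-terminally FLAG-tagged B-Raf(V600E), detected by TR-FRET with 0.5 nM Eu anti-FLAG antibody, in 25 mM HEPES pH 7.4, 10 mM MgCl2, 2% DMSO; 60 min at ~22 °C. Compounds 11-point, 3-fold from 10 μM; IC50 from 4-parameter fit at 50 POC.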
For orientation: In TR-FRET formats the signal depends on donor and acceptor labels being close together.

Data set [2] relates to A375 cells. The data set is described as follows: Cellular phospho-ERK inhibition assay in A375 cells. The format is cell-based. To be noted: Homo sapiens, A-375, A375 cells (head prints A357), 2 hours treatment, read-out: A357 cell IC50. In a few lines:
(§1)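 A375 (DMEM) or H1755 (RPMI) cells in 10% FBS treated 2 h at 37 °C with 9-point series, 66 pM–10 μM, 0.25% DMSO. Phospho-ERK1/2 (Thr202/Tyr204) measured by In Cell Western, normalised to GAPDH and to DMSO and 10 μM binimetinib controls; IC50 by 4-parameter fit.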

In data set [3] the test system is H1755 cells. The data set is described as follows: Cellular phospho-ERK inhibition assay in H1755 cells. To be noted: Homo sapiens, NCI-H1755, 2 hours treatment, read-out: H1755 Cell IC50. Type of data set: cell-based. Summed up:
as §1

The nature of data set [4]: MDR1 LLC-PK1 and BCRP MDCKII permeability assay: permeability coefficient (Papp). The format is in vitro ADME. The source says: (§2) Final organic concentration in the assay was 1%.
In data set [5] the target is P-gp (MDR1) (Homo sapiens (Human), UniProt P08183). The data set is described as follows: MDR1 LLC-PK1 permeability assay: efflux ratio. Type of data set: in vitro ADME. The conditions noted are these: pig.
Sequence of P-gp (MDR1) (P08183 whole entry, species assumed): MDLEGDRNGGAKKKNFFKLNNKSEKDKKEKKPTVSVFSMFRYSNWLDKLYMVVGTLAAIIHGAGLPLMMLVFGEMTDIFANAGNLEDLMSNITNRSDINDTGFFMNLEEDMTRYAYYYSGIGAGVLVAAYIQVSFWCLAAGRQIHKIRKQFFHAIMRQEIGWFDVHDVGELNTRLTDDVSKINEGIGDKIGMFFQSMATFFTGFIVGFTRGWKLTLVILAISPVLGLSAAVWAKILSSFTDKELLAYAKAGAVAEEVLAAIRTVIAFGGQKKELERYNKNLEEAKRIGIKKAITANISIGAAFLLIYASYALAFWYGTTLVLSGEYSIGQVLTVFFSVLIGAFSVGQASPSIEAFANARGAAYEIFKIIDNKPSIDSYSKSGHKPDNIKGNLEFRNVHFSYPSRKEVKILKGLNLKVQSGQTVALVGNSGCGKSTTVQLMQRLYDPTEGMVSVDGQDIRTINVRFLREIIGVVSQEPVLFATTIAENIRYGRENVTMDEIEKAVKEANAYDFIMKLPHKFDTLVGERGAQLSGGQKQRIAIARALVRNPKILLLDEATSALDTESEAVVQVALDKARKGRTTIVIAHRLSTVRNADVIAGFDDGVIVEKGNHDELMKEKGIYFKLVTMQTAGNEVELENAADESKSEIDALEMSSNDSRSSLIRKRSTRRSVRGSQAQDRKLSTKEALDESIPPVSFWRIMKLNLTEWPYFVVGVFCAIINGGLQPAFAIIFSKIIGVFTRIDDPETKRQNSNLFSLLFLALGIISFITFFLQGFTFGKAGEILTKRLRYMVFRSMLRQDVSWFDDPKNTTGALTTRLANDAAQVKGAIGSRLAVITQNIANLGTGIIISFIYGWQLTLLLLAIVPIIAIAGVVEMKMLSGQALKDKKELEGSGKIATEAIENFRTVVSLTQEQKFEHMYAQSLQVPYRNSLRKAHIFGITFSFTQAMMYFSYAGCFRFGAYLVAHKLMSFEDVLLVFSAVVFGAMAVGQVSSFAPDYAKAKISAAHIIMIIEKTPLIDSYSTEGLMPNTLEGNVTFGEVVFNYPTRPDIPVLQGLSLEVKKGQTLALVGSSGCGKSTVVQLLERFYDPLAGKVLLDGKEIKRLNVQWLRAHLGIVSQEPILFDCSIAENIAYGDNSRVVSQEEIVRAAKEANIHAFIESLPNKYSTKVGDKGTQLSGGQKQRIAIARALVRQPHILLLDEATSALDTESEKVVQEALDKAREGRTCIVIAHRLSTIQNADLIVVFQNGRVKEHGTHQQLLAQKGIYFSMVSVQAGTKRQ
From the text: as §2

Data set [6] concerns the target BCRP (Homo sapiens (Human), UniProt Q9UNQ0). Nature of the data set: BCRP MDCKII permeability assay: efflux ratio. The format is in vitro ADME. To be noted: dog.

Counter-ions that a name gives are not always drawn.

Sequence of BCRP (Q9UNQ0 whole entry): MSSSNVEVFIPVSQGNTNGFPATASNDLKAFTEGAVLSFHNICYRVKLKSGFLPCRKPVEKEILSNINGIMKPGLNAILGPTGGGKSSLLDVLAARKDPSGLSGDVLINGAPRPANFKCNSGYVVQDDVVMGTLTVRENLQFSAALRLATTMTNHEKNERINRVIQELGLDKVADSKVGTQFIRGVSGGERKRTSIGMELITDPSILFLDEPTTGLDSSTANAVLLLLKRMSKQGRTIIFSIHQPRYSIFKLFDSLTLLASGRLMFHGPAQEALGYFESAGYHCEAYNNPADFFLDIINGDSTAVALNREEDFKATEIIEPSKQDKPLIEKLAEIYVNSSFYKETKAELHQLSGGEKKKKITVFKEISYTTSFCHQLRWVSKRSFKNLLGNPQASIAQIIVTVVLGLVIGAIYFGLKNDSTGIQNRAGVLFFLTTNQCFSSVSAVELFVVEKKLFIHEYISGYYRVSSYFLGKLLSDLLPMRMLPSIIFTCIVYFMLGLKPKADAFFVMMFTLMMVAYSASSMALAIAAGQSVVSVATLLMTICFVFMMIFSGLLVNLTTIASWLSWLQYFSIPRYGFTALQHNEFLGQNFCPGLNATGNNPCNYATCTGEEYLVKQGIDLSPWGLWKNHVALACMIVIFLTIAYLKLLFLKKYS
Sequence of full-length FLAG-tagged B-Raf(V600E) (P15056 whole entry V600E): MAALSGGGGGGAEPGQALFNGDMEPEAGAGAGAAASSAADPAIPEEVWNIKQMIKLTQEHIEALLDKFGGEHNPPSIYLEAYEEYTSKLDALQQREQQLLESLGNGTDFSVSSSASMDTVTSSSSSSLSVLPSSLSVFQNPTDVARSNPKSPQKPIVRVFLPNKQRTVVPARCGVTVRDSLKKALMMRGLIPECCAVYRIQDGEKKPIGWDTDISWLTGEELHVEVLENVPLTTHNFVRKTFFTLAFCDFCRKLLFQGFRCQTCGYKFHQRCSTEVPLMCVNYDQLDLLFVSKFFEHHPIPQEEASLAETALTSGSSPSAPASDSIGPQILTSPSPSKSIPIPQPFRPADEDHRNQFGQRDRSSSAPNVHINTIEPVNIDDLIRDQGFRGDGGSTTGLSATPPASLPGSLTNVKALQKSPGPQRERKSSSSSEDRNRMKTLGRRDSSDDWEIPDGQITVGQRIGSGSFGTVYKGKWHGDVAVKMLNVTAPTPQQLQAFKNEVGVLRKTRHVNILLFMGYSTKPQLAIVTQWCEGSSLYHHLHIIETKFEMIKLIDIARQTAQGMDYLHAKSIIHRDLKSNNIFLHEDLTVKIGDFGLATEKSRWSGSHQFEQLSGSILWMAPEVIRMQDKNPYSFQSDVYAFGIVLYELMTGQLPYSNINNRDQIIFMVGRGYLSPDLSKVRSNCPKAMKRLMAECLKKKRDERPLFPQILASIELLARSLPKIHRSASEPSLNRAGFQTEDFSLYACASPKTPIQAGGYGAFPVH

On to `Cc1c(Nc2c(F)ccc(NS(=O)(=O)N(C)C)c2Cl)ccc2ncn(C)c(=O)c12` [Example 71, N-(2-chloro-3-((3,5-dimethyl-4-oxo-3,4-dihydroquinazolin-6-yl)amino)-4-fluorophenyl)-(N,N-dimethyl)-sulfamide], for which the figures for the IC50 in data set [1], in data set [2] and in data set [3] were 301 nM, 69 nM and 161 nM, respectively. Moreover, the Papp (as a rule, a coefficient for how fast a substance crosses the barrier) at 2 h, 1 µM in data set [4] was found to be 40 ×10⁻⁶ cm/s. Further, the values for the efflux ratio at 2 h, 1 µM in data set [5] and in data set [6] were 1.2 and 0.9, respectively.

As for `CN(C)S(=O)(=O)Nc1ccc(F)c(Nc2ccc3ncn(C)c(=O)c3c2F)c1Cl` [Example 83, N-(2-chloro-4-fluoro-3-((5-fluoro-3-methyl-4-oxo-3,4-dihydroquinazolin-6-yl)amino)phenyl)-(N.N-dimethyl)-sulfamide], the IC50 – broadly, the concentration at which inhibition is half-maximal – is 67 nM in data set [1], 31 nM in data set [2] and 155 nM in data set [3]. The Papp at 2 h, 1 µM in data set [4] came out at 32 ×10⁻⁶ cm/s. Also, the efflux ratio (as a rule, the permeability from basolateral to apical divided by that in the opposite direction, in the common usage) at 2 h, 1 µM was 2.2 in data set [5] and 1.9 in data set [6].

As for `Cc1c(Nc2c(F)ccc(NS(=O)(=O)N3CC[C@H](F)C3)c2Cl)ccc2ncn(C)c(=O)c12` [Example 86, (S)-N-(2-chloro-3-((3,5-dimethyl-4-oxo-3,4-dihydroquinazolin-6-yl)amino)-4-fluorophenyl)-3-fluoropyrrolidine-1-sulfonamide trifluoroacetate], the IC50 was 42 nM in data set [1], 34 nM in data set [2] and 182 nM in data set [3]. In data set [4], the Papp at 2 h, 1 µM came out at 28 ×10⁻⁶ cm/s. The efflux ratio at 2 h, 1 µM in data set [5] came out at 1.9; in data set [6], 1.6.

On to `Cc1c(Nc2c(F)ccc(NS(=O)(=O)N3CC4CC3C4)c2Cl)ccc2ncn(C)c(=O)c12` [Example 87, N-(2-chloro-3-((3,5-dimethyl-4-oxo-3,4-dihydroquinazolin-6-yl)amino)-4-fluorophenyl)-2-azabicyclo[2.1.1]hexane-2-sulfonamide trifluoroacetate], for which the figures for the IC50 in data set [1], in data set [2] and in data set [3] were 33 nM, 73 nM and 215 nM, respectively. Moreover, in data set [4], the Papp at 2 h, 1 µM was determined as 21 ×10⁻⁶ cm/s. Also, the results for the efflux ratio at 2 h, 1 µM in data set [5] and in data set [6] were 1 and 0.6, respectively.

For `Cc1c(Nc2c(F)ccc(NS(=O)(=O)N3CC[C@@H](OC(F)F)C3)c2Cl)ccc2ncn(C)c(=O)c12` [Example 89], the IC50 in data set [1] came to 14 nM; in data set [2] it was 50 nM; in data set [3], 173 nM. In data set [4], this compound showed a Papp at 2 h, 1 µM of 21 ×10⁻⁶ cm/s. For the same compound, the efflux ratio at 2 h, 1 µM in data set [5] came to 1.3; in data set [6], 1.

On to `Cc1c(Nc2c(F)ccc(NS(=O)(=O)N3C[C@@H](F)[C@@H](F)C3)c2Cl)ccc2ncn(C)c(=O)c12` [Example 90, (cis)-N-(2-chloro-3-((3,5-dimethyl-4-oxo-3,4-dihydroquinazolin-6-yl)amino)-4-fluorophenyl)-3,4-difluoropyrrolidine-1-sulfonamide], for which the values for the IC50 in data set [1], in data set [2] and in data set [3] were 9 nM, 49 nM and 127 nM, respectively. In data set [4], the Papp at 2 h, 1 µM stood at 31 ×10⁻⁶ cm/s. The efflux ratio at 2 h, 1 µM in data set [5] stood at 2.3; in data set [6], 3.5.

As to `Cc1c(Nc2c(F)ccc(NS(=O)(=O)N3CC4CC4C3)c2Cl)ccc2ncn(C)c(=O)c12` (stereo not drawn) [Example 92, N-(2-chloro-3-((3,5-dimethyl-4-oxo-3,4-dihydroquinazolin-6-yl)amino)-4-fluorophenyl)-3-azabicyclo[3.1.0]hexane-3-sulfonamide], the IC50 in data set [1] was determined as 8 nM; in data set [2] it was 36 nM; in data set [3] it was 35 nM. Also, the Papp at 2 h, 1 µM in data set [4] amounted to 22 ×10⁻⁶ cm/s. In addition, the values for the efflux ratio at 2 h, 1 µM in data set [5] and in data set [6] were 1.2 and 1.9, respectively.

`Cc1c(Nc2c(F)ccc(NS(=O)(=O)N3CCC(F)(F)C3)c2Cl)ccc2ncn(C)c(=O)c12` [Example 93, N-(2-chloro-3-((3,5-dimethyl-4-oxo-3,4-dihydroquinazolin-6-yl)amino)-4-fluorophenyl)-3,3-difluoropyrrolidine-1-sulfonamide]: the IC50 in data set [1] is 3 nM; in data set [2], 60 nM; in data set [3] it was 195 nM. Moreover, the Papp at 2 h, 1 µM in data set [4] was found to be 33 ×10⁻⁶ cm/s. The efflux ratio at 2 h, 1 µM worked out at 1.4 in data set [5] and 0.8 in data set [6].

As for `CCC1CCN(S(=O)(=O)Nc2ccc(F)c(Nc3ccc4ncn(C)c(=O)c4c3Cl)c2Cl)C1` (stereo not drawn) [Example 94, N-(2-chloro-3-((5-chloro-3-methyl-4-oxo-3,4-dihydroquinazolin-6-yl)amino)-4-fluorophenyl)-3-ethylpyrrolidine-1-sulfonamide trifluoroacetate], the concentration for half-maximal inhibition (IC50) in data set [1] turned out to be 20 nM; in data set [2], 138 nM; in data set [3], 281 nM. The Papp at 2 h, 1 µM in data set [4] stood at 22 ×10⁻⁶ cm/s. The efflux ratio at 2 h, 1 µM came out at 0.9 in data set [5] and 1.7 in data set [6].

Regarding `Cc1c(Nc2c(F)c(F)cc(NS(=O)(=O)N3C[C@@H](F)[C@@H](F)C3)c2Cl)ccc2ncn(C)c(=O)c12` [Example 95, cis-N-(2-chloro-3-((3,5-dimethyl-4-oxo-3,4-dihydroquinazolin-6-yl)amino)-4,5-difluorophenyl)-3,4-difluoropyrrolidine-1-sulfonamide], the 50% inhibitory concentration (IC50) in data set [1] worked out at 2 nM; in data set [2], 111 nM; in data set [3] it was 796 nM. In addition, the Papp at 2 h, 1 µM in data set [4] was 25 ×10⁻⁶ cm/s. Further, the results for the efflux ratio at 2 h, 1 µM in data set [5] and in data set [6] were 2.7 and 6.8, respectively.

With `Cc1c(Nc2c(F)c(F)cc(NS(=O)(=O)N3CCCC3)c2Cl)ccc2ncn(C)c(=O)c12` [Example 96, N-(2-chloro-3-((3,5-dimethyl-4-oxo-3,4-dihydroquinazolin-6-yl)amino)-4,5-difluorophenyl)pyrrolidine-1-sulfonamide], the IC50 was found to be 3 nM in data set [1], 40 nM in data set [2] and 586 nM in data set [3]. This compound came in with a Papp at 2 h, 1 µM in data set [4] of 27 ×10⁻⁶ cm/s. Besides, the efflux ratio at 2 h, 1 µM is 1.2 in data set [5] and 1.1 in data set [6].

With `CCN(C)S(=O)(=O)Nc1cc(F)c(F)c(Nc2ccc3ncn(C)c(=O)c3c2C)c1Cl` [Example 97, N-(2-chloro-3-((3,5-dimethyl-4-oxo-3,4-dihydroquinazolin-6-yl)amino)-4,5-difluorophenyl)-(N-ethyl-N-methyl)-sulfamide], the IC50 in data set [1] is 10 nM; in data set [2] it was 88 nM; in data set [3] it was 610 nM. In addition, the apparent permeability (Papp) at 2 h, 1 µM in data set [4] came out at 30 ×10⁻⁶ cm/s. The efflux ratio at 2 h, 1 µM worked out at 0.9 in data set [5] and 1.8 in data set [6].

As for `CO[C@@H]1CCN(S(=O)(=O)Nc2cc(F)c(F)c(Nc3ccc4ncn(C)c(=O)c4c3C)c2Cl)C1` [Example 99, (R)-N-(2-chloro-3-((3,5-dimethyl-4-oxo-3,4-dihydroquinazolin-6-yl)amino)-4,5-difluorophenyl)-3-methoxypyrrolidine-1-sulfonamide], the IC50 stood at 5 nM in data set [1], 33 nM in data set [2] and 100 nM in data set [3]. The Papp at 2 h, 1 µM in data set [4] came out at 34 ×10⁻⁶ cm/s. For the same compound, the efflux ratio at 2 h, 1 µM amounted to 1.7 in data set [5] and 1.4 in data set [6].
